Bridges are numbered along the chain shown (N, C = ends). Where no end group is shown, it is not given here.
Experiments:
CLL1-expressing cells = details: therapeutic concentration of approximately 4 µM ref 8; cited from earlier work
[1] = test system: Caspase 3/7 in heart tissues; experiment: Caspase-Glo 3/7 assay in heart tissue; type: in vivo; details: 25 mg/kg, 5 days after treatment
[2] = test system: vital organs (heart, liver, spleen, lung, kidney); experiment: Histological analysis of organ toxicity; type: in vivo; details: mice, 5 days after treatment
[3] = test system: plasma cardiac troponin T (cTnT); experiment: Plasma cardiac troponin T ELISA; type: in vivo; details: single dose DNR 15 mg/kg
[4] = test system: plasma creatine kinase MB isoenzyme; experiment: Plasma CK-MB ELISA; type: in vivo; details: mice, single dose DNR 15 mg/kg
[5] = Pharmacokinetics in rats after single intravenous injection; type: in vivo, Sprague–Dawley rats
K562-CLL1 xenograft = experiment: Efficacy in mice bearing K562-CLL1 xenograft; type: in vivo, nude mice; details: 10 mg/kg every 3 days
[6] = Pharmacokinetics in mice after single intravenous injection; type: in vivo, BALB/c mice
[7] = Sprague-Dawley, rat, plasma, iv, 5 mg/kg
[8] = rats, 5 mg/kg DNR iv, mean ± SD
[9] = BALB/c, mouse, plasma, iv, 10 mg/kg
[10] = mice, 10 mg/kg DNR iv, mean ± SD

CLL1-targeting ligand: CLL1-targeting peptide (amino acid sequence: CDLRSAAVC), cyclized via disulfide (disulfide 1-9 (inferred))
increase of micelle-mediated drug delivery to CLL1-expressing cells (CLL1-expressing cells): approximately threefold

COc1cccc2c1C(=O)c1c(O)c3c(c(O)c1C2=O)C[C@@](O)(C(C)=O)C[C@@H]3O[C@H]1C[C@H](N)[C@H](O)[C@H](C)O1 [Free DNR, daunorubicin]
caspase 3/7 activity in cardiac tissue relative to control mice treated with PBS [1]: about 3.46 times
histopathological changes in cardiac tissue ([2]; 25 mg/kg): marked myocardial toxicity
histopathological changes in spleen ([2]; low- or high-dose (5 and 25 mg/kg)): Marked red pulp hemorrhage-associated compensative sinusoidal histocytic proliferation and extramedullary hematopoiesis
cTnT level relative to control mice ([3]; 1 day after dosing): 9.15 times
cTnT level relative to control mice ([3]; 3 days (peak)): 15.8 times
plasma CK-MB level ([4]; 3 h after dosing): 60.02 ± 4.05 U/l
plasma CK-MB level ([4]; 5 days of follow-up): 113.98 ± 10.42 U/l
AUC(0-t) [5, 7]: 3.6 ± 0.79 µg·h/mL
Cmax [5, 7]: 1910 ± 260 ng/mL
MRT [5, 7]: 36.2 ± 6.51 h
Vd [5, 7]: 50.8 L/kg
clearance [5, 7]: 23.7 ± 5.2 mL/min/kg
half-life ([5]; Sprague-Dawley, rat, plasma, iv, 5 mg/kg, T 1/2β, rats, 5 mg/kg DNR iv): 25.4 ± 4.54 h
T 1/2α ([5]; rats, 5 mg/kg DNR iv): 56.4 ± 0 s
Kel [5, 8]: 0.01 ± 0.00
α [5, 8]: 0.74 ± 0.00 min⁻¹
β [5, 8]: 0.00 ± 0.00 min⁻¹
overall survival (K562-CLL1 xenograft): 44 days
AUC(0-t) [6, 9]: 836 ± 151 µg·h/mL
Cmax [6, 9]: 961000 ± 92000 ng/mL
MRT [6, 9]: 16.7 h
Vd [6, 9]: 0.205 ± 0.048 L/kg
clearance [6, 9]: 0.2 ± 0.03 mL/min/kg
concentration at 24 h [6, 9]: 13600 ± 1920 ng/mL
half-life ([6]; BALB/c, mouse, plasma, iv, 10 mg/kg, T 1/2β, mice, 10 mg/kg DNR iv): 11.9 ± 1 h
T 1/2α ([6]; mice, 10 mg/kg DNR iv, initial half-life in plasma): 1.11 ± 0.04 min
Kel [6, 10]: 3.68 ± 6.35
α [6, 10]: 0.63 ± 0.02 min⁻¹
β [6, 10]: 0.0001 min⁻¹
